Assay results as given in US10556884B2, “Pesticidally active heterocyclic derivatives with sulphur containing substituents” (SYNGENTA PARTICIPATIONS AG, priority 2015, dated 2020).

How the values were obtained:
Format in all cases: in vivo
[1] = system: Myzus persicae (Green Peach Aphid); assay: Myzus persicae feeding/contact activity, sunflower leaf discs; conditions: foliar, 144 h, application rate of 200 ppm, feeding/contact, population of mixed ages, 6 days after infestation, read-out: mortality
Experimental: Example B5: Myzus persicae (Green Peach Aphid): Feeding/Contact Activity
(§1) Sunflower leaf discs were placed onto agar in a 24-well microtiter plate and sprayed with aqueous test solutions prepared from 10′000 ppm DMSO stock solutions. After drying, the leaf discs were infested with an aphid population of mixed ages. The samples were assessed for mortality 6 days after infestation.

[2] = system: Myzus persicae (Green Peach Aphid); assay: Myzus persicae systemic activity, pea seedlings; conditions: 144 h, test rate of 24 ppm, 6 days after placing seedlings into test solutions
[3] = system: Bemisia tabaci (Cotton White Fly); assay: Bemisia tabaci feeding/contact activity, cotton leaf discs; conditions: foliar, 144 h, application rate of 200 ppm, adult white flies, 6 days after incubation
Experimental: Example B1: Bemisia tabaci (Cotton White Fly): Feeding/Contact Activity
Cotton leaf discs were placed on agar in 24-well microtiter plates and sprayed with aqueous test solutions prepared from 10′000 ppm DMSO stock solutions. After drying the leaf discs were infested with adult white flies. The samples were checked for mortality 6 days after incubation.

[4] = system: Spodoptera littoralis (Egyqptian Cotton Leaf Worm); assay: Spodoptera littoralis, uptake by lettuce roots from agar; conditions: 144 h, test rate of 12.5 ppm, 6 days after infestation, read-out: effect in at least one of the three categories (mortality, anti-feeding, or growth inhibition)
Source text: Example B9: Spodoptera littoralis (Egyqptian Cotton Leaf Worm)
Test compounds were applied by pipette from 10′000 ppm DMSO stock solutions into 24-well plates and mixed with agar. Lettuce seeds were placed onto the agar and the multi well plate was closed by another plate which contained also agar. After 7 days the compound was absorbed by the roots and the lettuce grew into the lid plate. The lettuce leaves were then cut off into the lid plate. Spodoptera eggs were pipetted through a plastic stencil onto a humid gel blotting paper and the lid plate was closed with it. The samples were assessed for mortality, anti-feedant effect and growth inhibition in comparison to untreated samples 6 days after infestation.

[5] = system: Spodoptera littoralis (Egyqptian Cotton Leaf Worm); assay: Spodoptera littoralis L1 larvae on sprayed cotton leaf discs; conditions: foliar, 72 h, application rate of 200 ppm, L1 larvae, 3 days after infestation, read-out: control (mortality, anti-feeding effect, growth inhibition)
Experimental: Example B8: Spodoptera littoralis (Egyqptian Cotton Leaf Worm)
Cotton leaf discs were placed onto agar in 24-well microtiter plates and sprayed with aqueous test solutions prepared from 10′000 ppm DMSO stock solutions. After drying the leaf discs were infested with five L1 larvae. The samples were assessed for mortality, anti-feeding effect, and growth inhibition in comparison to untreated samples 3 days after infestation. Control of Spodoptera littoralis by a test sample is given when at least one of the categories mortality, anti-feedant effect, and growth inhibition is higher than the untreated sample.

[6] = system: Plutella xylostella (Diamond Back Moth); assay: Plutella xylostella L2 larvae on artificial diet; conditions: 120 h, application rate of 200 ppm, L2 larvae, 5 days after infestation, read-out: effect in at least one of the two categories (mortality or growth inhibition)
Experimental: Example B7: Plutella xylostella (Diamond Back Moth)
(§2) 24-well microtiter plates with artificial diet were treated with aqueous test solutions prepared from 10′000 ppm DMSO stock solutions by pipetting. After drying, the plates were infested with L2 larvae (10 to 15 per well). The samples were assessed for mortality and growth inhibition in comparison to untreated samples 5 days after infestation.

[7] = system: Thrips tabaci (Onion Thrips); assay: Thrips tabaci feeding/contact activity, sunflower leaf discs; conditions: foliar, 144 h, application rate of 200 ppm, population of mixed ages, 6 days after infestation
Experimental: Example B11: Thrips tabaci (Onion Thrips) Feeding/Contact Activity
as §1, with “on” for “onto”, “in” for “in a”, “plates” for “plate”, “drying” for “drying,”, “a thrips” for “an aphid”

[8] = system: Diabrotica Balteata (Corn Root Worm); assay: Diabrotica balteata L2 larvae on maize sprouts; conditions: 96 h, application rate of 200 ppm, L2 larvae, 4 days after infestation, read-out: effect in at least one of the two categories (mortality or growth inhibition)
Experimental: Example B2: Diabrotica Balteata (Corn Root Worm)
as §2, with “Maize sprouts placed onto an agar layer in 24-well” for “24-well”, “plates” for “plates with artificial diet”, “spraying.” for “pipetting.”, “(6” for “(10”, “10” for “15”, “4” for “5”

CCS(=O)(=O)c1ccc(C(=O)N(C)C2CC2)nc1-c1nnc(-c2cc(C(F)(F)F)ccn2)n1C [A17, N-cyclopropyl-5-ethylsulfonyl-N-methyl-6-[4-methyl-5-[4-(trifluoromethyl)-2-pyridyl]-1,2,4-triazol-3-yl]pyridine-2-carboxamide]
≥ 80%: mortality at 200 ppm [1] | mortality at 24 ppm [2] | mortality at 200 ppm [3]

CCS(=O)(=O)c1ccc(C(=O)O)nc1-c1nnc(-c2cc(C(F)(F)F)ccn2)n1C [A34, 5-ethylsulfonyl-6-[4-methyl-5-[4-(trifluoromethyl)-2-pyridyl]-1,2,4-triazol-3-yl]pyridine-2-carboxylic Acid]
≥ 80%: percent effect (mortality, anti-feeding or growth inhibition) at 12.5 ppm [4]

CCS(=O)(=O)c1cc(Cl)c(N)nc1-c1nnc(-c2cc(C(F)(F)F)ccn2)n1C [A42, 3-chloro-5-ethylsulfonyl-6-[4-methyl-5-[4-(trifluoromethyl)-2-pyridyl]-1,2,4-triazol-3-yl]pyridin-2-amine]
≥ 80%: mortality at 200 ppm [5] | percent effect (mortality or growth inhibition) at 200 ppm [6] | mortality at 200 ppm [1] | mortality at 24 ppm [2] | mortality at 200 ppm [7] | percent effect (mortality or growth inhibition) at 200 ppm [8] | mortality at 200 ppm [3]

CCS(=O)(=O)c1cc(Br)c(N)nc1-c1nnc(-c2cc(C(F)(F)F)ccn2)n1C [A43]
≥ 80%: mortality at 200 ppm [5] | percent effect (mortality or growth inhibition) at 200 ppm [6] | mortality at 200 ppm [1] | mortality at 24 ppm [2] | mortality at 200 ppm [7] | percent effect (mortality or growth inhibition) at 200 ppm [8] | mortality at 200 ppm [3]

CCS(=O)(=O)c1cc(N)c(Br)nc1-c1nnc(-c2cc(C(F)(F)F)ccn2)n1C [A45]
≥ 80%: mortality at 200 ppm [5] | percent effect (mortality or growth inhibition) at 200 ppm [6] | percent effect (mortality, anti-feeding or growth inhibition) at 12.5 ppm [4] | percent effect (mortality or growth inhibition) at 200 ppm [8]
